This note sets out measurements from patent publication US10913727B2, “Modulators of the integrated stress pathway” (Calico Life Sciences LLC, priority 2016, dated 2021).

For this test, the system named is HEK293T cells carrying the ATF4 luciferase reporter. Kind of test: ATF4-Luc assay, in vitro model of Vanishing Cell White Matter Disease (VWMD). As to conditions: Homo sapiens, HEK-293T, 1 μg/mL tunicamycin, 7 hours, One Glo luminescence. It is filed as cell-based. Summed up: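 Compound at 200 nM and tunicamycin at 1 μg/mL were given together for 7 h to HEK293T cells stably transduced with an ATF4 5′-UTR-driven firefly luciferase reporter. Read-out by luminescence, reported as EC50.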
A word on the EC50: it is the concentration giving half of the maximal effect. For `COc1cc(C(=O)NC23CC(NC(=O)COc4ccc(Cl)c(F)c4)(C2)C3)c(OC)nn1` [Compound 788, N-{3-[2-(4-chloro-3-fluorophenoxy)acetamido]bicyclo[1.1.1]pentan-1-yl}-3,6-dimethoxypyridazine-4-carboxamide], the EC50 is over 2000 nM.

In the case of `O=C(COc1ccc(Cl)c(F)c1)NC12CC(NC(=O)c3cccc(CO)c3)(C1)C2` [Compound 419, N-{3-[2-(4-chloro-3-fluorophenoxy)acetamido]bicyclo[1.1.1]pentan-1-yl}-3-(hydroxymethyl)benzamide], the EC50 was in the range of 250 to 1000 nM.

Consider `O=C(COc1ccc(Cl)c(Cl)c1)NC12CC(NC(=O)c3ccc(OC(F)(F)F)nc3)(C1)C2` [Compound 147, N-{3-[2-(3,4-dichlorophenoxy)acetamido]bicyclo[1.1.1]pentan-1-yl}-6-(trifluoromethoxy)pyridine-3-carboxamide], for which the EC50 was in the range of 50 to 250 nM.

For `Cc1cc(C(=O)NC23CC(NC(=O)COc4ccc(Cl)c(F)c4)(C2)C3)sn1` [Compound 564, N-{3-[2-(4-chloro-3-fluorophenoxy)acetamido]bicyclo[1.1.1]pentan-1-yl}-3-methyl-1,2-thiazole-5-carboxamide], the EC50 lay within 50 to 250 nM.

As to `O=C(COc1ccc(Cl)c(F)c1)NC12CCC(NC(=O)c3cc(C(F)F)cs3)(CC1)C[C@@H]2O` [Compound 665, N-{(3S)-4-[2-(4-chloro-3-fluorophenoxy)acetamido]-3-hydroxybicyclo[2.2.2]octan-1-yl}-4-(difluoromethyl)thiophene-2-carboxamide], the EC50 is under 50 nM.

With `O=C(COc1ccc(Cl)c(F)c1)NC12CCC(NC(=O)c3ccc(OC(F)(F)F)cn3)(CC1)C[C@@H]2O` [Compound 682, N-{(3S)-4-[2-(4-chloro-3-fluorophenoxy)acetamido]-3-hydroxybicyclo[2.2.2]octan-1-yl}-5-(trifluoromethoxy)pyridine-2-carboxamide], the EC50 was under 50 nM.

For `O=C(COc1ccc(Cl)c(F)c1)NC12CC(Nc3ccnc4cc(Cl)ccc34)(C1)C2` [Compound 384, 2-(4-chloro-3-fluorophenoxy)-N-{3-[(7-chloroquinolin-4-yl)amino]bicyclo[1.1.1]pentan-1-yl}acetamide], the EC50 was under 50 nM.

On to `Cc1occc1C(=O)NC12CC(NC(=O)COc3ccc(Cl)c(F)c3)(C1)C2` [Compound 556, N-{3-[2-(4-chloro-3-fluorophenoxy)acetamido]bicyclo[1.1.1]pentan-1-yl}-2-methylfuran-3-carboxamide], for which the concentration giving a half-maximal response (EC50) fell in the range of 1000 to 2000 nM.

Consider `O=C(COc1ccc(Cl)c(F)c1)NC12CC(NC(=O)c3cocn3)(C1)C2` [Compound 852, N-{3-[2-(4-chloro-3-fluorophenoxy)acetamido]bicyclo[1.1.1]pentan-1-yl}-1,3-oxazole-4-carboxamide], for which the EC50 lay in the range of 1000 to 2000 nM.

Regarding `Cc1ccncc1C(=O)NC12CC(NC(=O)COc3ccc(Cl)c(F)c3)(C1)C2` [Compound 738, N-{3-[2-(4-chloro-3-fluorophenoxy)acetamido]bicyclo[1.1.1]pentan-1-yl}-4-methylpyridine-3-carboxamide], the EC50 was over 2000 nM.

In the case of `O=C(COc1ccc(F)c(F)c1)NC12CC(NC(=O)c3cnc(C(F)F)cn3)(C1)C2` [Compound 278, 5-(difluoromethyl)-N-{3-[2-(3,4-difluorophenoxy)acetamido]bicyclo[1.1.1]pentan-1-yl}pyrazine-2-carboxamide], the EC50 is 250 to 1000 nM.

In the case of `O=C(COc1ccc(Cl)c(F)c1)NC12CC(NC(=O)c3c(F)cccc3F)(C1)C2` [Compound 512, N-{3-[2-(4-chloro-3-fluorophenoxy)acetamido]bicyclo[1.1.1]pentan-1-yl}-2,6-difluorobenzamide], the EC50 is over 2000 nM.

Regarding `CC(=O)N1CC=C(c2ncc(C(=O)NC34CC(NC(=O)COc5ccc(Cl)c(F)c5)(C3)C4)o2)CC1` [Compound 151, 2-(1-acetyl-1,2,3,6-tetrahydropyridin-4-yl)-N-{3-[2-(4-chloro-3-fluorophenoxy)acetamido]bicyclo[1.1.1]pentan-1-yl}-1,3-oxazole-5-carboxamide], the EC50 was over 2000 nM.

Turning to `O=C(COc1ccc(Cl)c(F)c1)NC12CC(NC(=O)c3cnc4ccccn34)(C1)C2` [Compound 258, N-{3-[2-(4-chloro-3-fluorophenoxy)acetamido]bicyclo[1.1.1]pentan-1-yl}imidazo[1,2-a]pyridine-3-carboxamide], the EC50 fell in the range of 250 to 1000 nM.

For the compound `COCc1nc(C(=O)NC23CC(NC(=O)COc4ccc(Cl)c(F)c4)(C2)C3)cs1` [Compound 926, N-{3-[2-(4-chloro-3-fluorophenoxy)acetamido]bicyclo[1.1.1]pentan-1-yl}-2-(methoxymethyl)-1,3-thiazole-4-carboxamide], the EC50 lay within 50 to 250 nM.

Take `CCn1nc(C)cc1C(=O)NC12CC(NC(=O)COc3ccc(Cl)c(F)c3)(C1)C2` [Compound 359, N-{3-[2-(4-chloro-3-fluorophenoxy)acetamido]bicyclo[1.1.1]pentan-1-yl}-1-ethyl-3-methyl-1H-pyrazole-5-carboxamide]: the EC50 lay within 250 to 1000 nM.

Take `COc1ccccc1-c1cc(C(=O)NC23CCC(NC(=O)COc4ccc(Cl)c(F)c4)(CC2)C(O)C3)on1` (centres unmarked) [Compound 397, N-{4-[2-(4-chloro-3-fluorophenoxy)acetamido]-3-hydroxybicyclo[2.2.2]octan-1-yl}-3-(2-methoxyphenyl)-1,2-oxazole-5-carboxamide]: the EC50 was in the range of 50 to 250 nM.

As for `Cc1cccc(C(=O)NC23CC(NC(=O)COc4ccc(Cl)c(F)c4)(C2)C3)n1` [Compound 891, N-{3-[2-(4-chloro-3-fluorophenoxy)acetamido]bicyclo[1.1.1]pentan-1-yl}-6-methylpyridine-2-carboxamide], the EC50 lay in the range of 50 to 250 nM.

On to `CC(C)(C)c1cc(C(=O)NC23CCC(NC(=O)COc4ccc(Cl)c(F)c4)(CC2)[C@@H](O)C3)on1` [Compound 581, 3-tert-butyl-N-{(3S)-4-[2-(4-chloro-3-fluorophenoxy)acetamido]-3-hydroxybicyclo[2.2.2]octan-1-yl}-1,2-oxazole-5-carboxamide], for which the EC50 is under 50 nM.

In the case of `Cc1nc(C(=O)NC23CC(NC(=O)COc4ccc(Cl)c(Cl)c4)(C2)C3)cs1` [Compound 559, N-{3-[2-(3,4-dichlorophenoxy)acetamido]bicyclo[1.1.1]pentan-1-yl}-2-methyl-1,3-thiazole-4-carboxamide], the EC50 was under 50 nM.

As for `COc1cccc(C(=O)NC23CC(NC(=O)COc4ccc(Cl)c(F)c4)(C2)C3)n1` [Compound 829, N-{3-[2-(4-chloro-3-fluorophenoxy)acetamido]bicyclo[1.1.1]pentan-1-yl}-6-methoxypyridine-2-carboxamide], the EC50 fell in the range of 50 to 250 nM.

Turning to `O=C(COc1ccc(Cl)c(F)c1)NC12CC(NC(=O)c3ccc(Cl)cc3)(C1)C2` [Compound 199, 4-chloro-N-{3-[2-(4-chloro-3-fluorophenoxy)acetamido]bicyclo[1.1.1]pentan-1-yl}benzamide], the EC50 was 50 to 250 nM.

Consider `CCc1ncc(C(=O)NC23CC(NC(=O)COc4ccc(Cl)c(F)c4)(C2)C3)o1` [Compound 290, N-{3-[2-(4-chloro-3-fluorophenoxy)acetamido]bicyclo[1.1.1]pentan-1-yl}-2-ethyl-1,3-oxazole-5-carboxamide], for which the EC50 fell in the range of 50 to 250 nM.

With `O=C(COc1ccc(Cl)c(Cl)c1)NC12CC(NC(=O)c3csc(C(F)(F)F)n3)(C1)C2` [Compound 676, N-{3-[2-(3,4-dichlorophenoxy)acetamido]bicyclo[1.1.1]pentan-1-yl}-2-(trifluoromethyl)-1,3-thiazole-4-carboxamide], the EC50 was under 50 nM.

Turning to `Cc1ccnc(C(=O)NC23CCC(NC(=O)COc4ccc(Cl)c(F)c4)(CC2)C(O)C3)c1` (centres unmarked) [Compound 915, N-{4-[2-(4-chloro-3-fluorophenoxy)acetamido]-3-hydroxybicyclo[2.2.2]octan-1-yl}-4-methylpyridine-2-carboxamide], the EC50 lay within 250 to 1000 nM.

On to `Cc1ncc(-c2ncc(C(=O)NC34CC(NC(=O)COc5ccc(Cl)c(F)c5)(C3)C4)o2)cn1` [Compound 109, N-{3-[2-(4-chloro-3-fluorophenoxy)acetamido]bicyclo[1.1.1]pentan-1-yl}-2-(2-methylpyrimidin-5-yl)-1,3-oxazole-5-carboxamide], for which the EC50 was in the range of 250 to 1000 nM.

In the case of `O=C(COc1ccc(Cl)c(F)c1)NC12CC(NC(=O)c3cc(C(F)(F)F)ccn3)(C1)C2` [Compound 176, N-{3-[2-(4-chloro-3-fluorophenoxy)acetamido]bicyclo[1.1.1]pentan-1-yl}-4-(trifluoromethyl)pyridine-2-carboxamide], the EC50 fell in the range of 50 to 250 nM.

`CCc1ncc(C(=O)NC23CC(NC(=O)COc4ccc(Cl)c(Cl)c4)(C2)C3)o1` [Compound 674, N-{3-[2-(3,4-dichlorophenoxy)acetamido]bicyclo[1.1.1]pentan-1-yl}-2-ethyl-1,3-oxazole-5-carboxamide]: the EC50 was under 50 nM.

Take `O=C(COc1ccc(Cl)c(F)c1)NC12CCC(NC(=O)c3ccccc3C(=O)O)(CC1)CC2O` (centres unmarked) [Compound 656, 2-({4-[2-(4-chloro-3-fluorophenoxy)acetamido]-3-hydroxybicyclo[2.2.2]octan-1-yl}carbamoyl)benzoic acid]: the EC50 was over 2000 nM.

Turning to `Cc1cc(C(=O)NC23CCC(NC(=O)COc4ccc(Cl)c(F)c4)(CC2)C(O)C3)n(C)n1` (centres unmarked) [Compound 447, N-{4-[2-(4-chloro-3-fluorophenoxy)acetamido]-3-hydroxybicyclo[2.2.2]octan-1-yl}-1,3-dimethyl-1H-pyrazole-5-carboxamide], the EC50 fell in the range of 50 to 250 nM.

On to `O=C(COc1ccc(Cl)c(F)c1)NC12CC(NC(=O)c3ccc(-c4ccc(Cl)c(F)c4)o3)(C1)C2` [Compound 106, N-{3-[2-(4-chloro-3-fluorophenoxy)acetamido]bicyclo[1.1.1]pentan-1-yl}-5-(4-chloro-3-fluorophenyl)furan-2-carboxamide], for which the EC50 was under 50 nM.

`O=C(COc1ccc(Cl)c(F)c1)NC12CC(NC(=O)c3ccc4nsnc4c3)(C1)C2` [Compound 797, N-{3-[2-(4-chloro-3-fluorophenoxy)acetamido]bicyclo[1.1.1]pentan-1-yl}-2,1,3-benzothiadiazole-5-carboxamide]: the EC50 was over 2000 nM.
